Like-named read-outs stand apart in the source and are kept apart here. Starred links: 1 amine or outer side, 2 acyl side, 3 side chain; linkers in the order of their positions; H or OH if unused. Positions of bridges follow the written chain, without caps; N, C: chain ends. Non-standard residues stand in square brackets, D forms with d. Chains are numbered I, II in the order given. No end group written: not given here. X3 = O=C(CCOCCN(CCOCCC(=O)NCCOCCOCCOCCOCCOCCOCCOCCOCCOCCOCCOCCOCCOCCOCCOCCOCCOCCOCCOCCOCCOCCOCCOCCn1cc(CCC(=O)[*:2])nn1)CCOCCC(=O)NCCOCCOCCOCCOCCOCCOCCOCCOCCOCCOCCOCCOCCOCCOCCOCCOCCOCCOCCOCCOCCOCCOCCOCCn1cc(CCC(=O)[*:3])nn1)NCCOCCOCCOCCOCCOCCOCCOCCOCCOCCOCCOCCOCCOCCOCCOCCOCCOCCOCCOCCOCCOCCOCCOCCn1cc(CCC(=O)[*:1])nn1; X1 = O=C(C[*:1])N1CCN(C(=O)C[*:2])CCN(C(=O)C[*:3])CC1; 1Nal = N[C@@H](Cc1cccc2ccccc12)C(=O)O
Legend:
human P-Selectin protein = target: T1, human P-Selectin protein (Homo sapiens, UniProt P16109); assay: SPR binding assay (Biacore); conditions: Affinity KD determined by SPR, recombinant biotinylated human P-Selectin, 25° C.
T1 sequence (P16109 42-830): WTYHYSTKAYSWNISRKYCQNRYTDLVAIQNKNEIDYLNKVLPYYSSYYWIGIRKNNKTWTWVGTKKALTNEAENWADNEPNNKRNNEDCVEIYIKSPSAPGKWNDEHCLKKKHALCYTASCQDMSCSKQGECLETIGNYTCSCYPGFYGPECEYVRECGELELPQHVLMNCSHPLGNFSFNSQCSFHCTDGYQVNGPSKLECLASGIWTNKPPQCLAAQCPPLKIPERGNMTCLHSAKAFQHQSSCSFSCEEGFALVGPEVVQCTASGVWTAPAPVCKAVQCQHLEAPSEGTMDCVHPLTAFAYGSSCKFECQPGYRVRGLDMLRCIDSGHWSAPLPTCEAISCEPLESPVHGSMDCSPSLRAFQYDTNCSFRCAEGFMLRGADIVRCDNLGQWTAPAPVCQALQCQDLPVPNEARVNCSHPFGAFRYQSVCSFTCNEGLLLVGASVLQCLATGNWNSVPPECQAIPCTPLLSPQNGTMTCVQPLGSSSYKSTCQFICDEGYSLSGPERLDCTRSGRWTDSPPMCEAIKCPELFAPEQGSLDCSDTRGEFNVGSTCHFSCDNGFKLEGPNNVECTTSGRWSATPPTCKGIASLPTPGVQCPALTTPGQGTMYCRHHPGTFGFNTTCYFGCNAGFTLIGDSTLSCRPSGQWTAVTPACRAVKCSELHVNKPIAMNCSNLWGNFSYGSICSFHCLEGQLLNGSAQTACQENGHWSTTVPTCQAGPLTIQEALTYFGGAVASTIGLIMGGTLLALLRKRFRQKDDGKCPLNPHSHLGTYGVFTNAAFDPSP
Method in brief: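 Biotinylated recombinant human P-Selectin was captured on a streptavidin chip (1000-1500 RU), and monomeric peptides were injected in PBS/0.05% Tween 20 with 0.5% DMSO at 25 °C (top 200 nM–50 μM, 2- or 3-fold series). Double-referenced data were fitted to a kinetic model with mass transport to give ka, kd and KD.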

[1] = target: T2, P-Selectin:PSGL1 interaction (Homo sapiens, UniProt P16109); assay: Receptor ligand inhibition assay (P-Selectin binding to HL-60 cells); type: cell-based; conditions: for Inhibition at top concentration: 100−% response at top concentration
T2 construct: host or cells: HL-60 cells (ATCC, CCL-240) supply the PSGL-1 partner endogenously
T2 sequence (P16109 42-771 limits assumed): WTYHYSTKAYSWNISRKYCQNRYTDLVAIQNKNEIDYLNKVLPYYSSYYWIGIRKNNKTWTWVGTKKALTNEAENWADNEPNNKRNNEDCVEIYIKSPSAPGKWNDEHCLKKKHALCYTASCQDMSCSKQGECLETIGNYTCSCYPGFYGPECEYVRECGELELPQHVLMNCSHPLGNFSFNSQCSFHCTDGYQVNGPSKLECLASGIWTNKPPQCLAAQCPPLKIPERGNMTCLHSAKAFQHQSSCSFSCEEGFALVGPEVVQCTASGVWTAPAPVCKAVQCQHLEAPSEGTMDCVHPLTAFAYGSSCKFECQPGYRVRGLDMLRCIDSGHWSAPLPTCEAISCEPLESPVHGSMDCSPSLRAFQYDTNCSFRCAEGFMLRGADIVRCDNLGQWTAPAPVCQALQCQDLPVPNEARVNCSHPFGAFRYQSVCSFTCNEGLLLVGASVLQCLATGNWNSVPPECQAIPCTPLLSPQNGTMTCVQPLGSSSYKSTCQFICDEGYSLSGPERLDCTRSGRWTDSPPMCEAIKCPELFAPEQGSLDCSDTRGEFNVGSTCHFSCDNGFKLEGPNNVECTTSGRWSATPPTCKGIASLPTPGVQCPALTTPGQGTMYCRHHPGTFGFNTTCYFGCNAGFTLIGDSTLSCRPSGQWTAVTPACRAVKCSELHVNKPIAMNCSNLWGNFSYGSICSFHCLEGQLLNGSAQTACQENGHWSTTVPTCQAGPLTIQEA
Method in brief: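 Serial dilutions in HEPES buffer, pH 7.4, with 1% BSA and 0.5% DMSO were preincubated 15 min at room temperature with P-selectin (5 nM final). HL-60 cells with far-red WGA and AF488-streptavidin were then added for 2 h, binding read by microplate cytometry; IC50 from four-parameter logistic fit, % inhibition as 100−% response at top concentration.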

Compound	Kd (human P-Selectin protein)	IC50 [1]	Inhibition at top concentration ([1]; geomean of n=3)	IC50 ([1]; 5 nM P-Selectin, HL-60 cells, geomean of n=3, read-out: IC50)
CC(C)C[C@@H]1NC(=O)[C@H](CO)NC(=O)[C@@H]2CCCN2C(=O)[C@H](C(C)C)NC(=O)[C@H](CC(=O)O)NC(=O)[C@@H]2CSCC(=O)N3CCN(CCN(CC3)C(=O)CSC[C@@H](C(=O)N[C@@H](C)C(=O)N[C@@H](CCCCNC(=O)CCc3cn(CCOCCOCCOCCOCCOCCOCCOCCOCCOCCOCCOCCOCCOCCOCCOCCOCCOCCOCCOCCOCCOCCOCCOCCNC(=O)CCOCC(COCCC(=O)NCCOCCOCCOCCOCCOCCOCCOCCOCCOCCOCCOCCOCCOCCOCCOCCOCCOCCOCCOCCOCCOCCOCCOCCn4cc(CCC(=O)NCCCC[C@H](NC(=O)[C@H](C)NC(=O)[C@@H]5CSCC(=O)N6CCN7CCN(CC6)C(=O)CSC[C@H](NC(=O)[C@H](Cc6cccc8ccccc68)NC(=O)[C@H](CC(=O)O)NC(=O)[C@H](C)NC(=O)[C@H](CC(=O)O)NC(=O)[C@@H](NC(=O)[C@H](C)N)CSCC7=O)C(=O)N[C@@H](CC(=O)O)C(=O)N[C@@H](C(C)C)C(=O)N6CCC[C@H]6C(=O)N[C@@H](CO)C(=O)N[C@@H](CC(C)C)C(=O)N6CCC[C@H]6C(=O)N5)C(N)=O)nn4)(COCCC(=O)NCCOCCOCCOCCOCCOCCOCCOCCOCCOCCOCCOCCOCCOCCOCCOCCOCCOCCOCCOCCOCCOCCOCCOCCn4cc(CCC(=O)NCCCC[C@H](NC(=O)[C@H](C)NC(=O)[C@@H]5CSCC(=O)N6CCN7CCN(CC6)C(=O)CSC[C@H](NC(=O)[C@H](Cc6cccc8ccccc68)NC(=O)[C@H](CC(=O)O)NC(=O)[C@H](C)NC(=O)[C@H](CC(=O)O)NC(=O)[C@@H](NC(=O)[C@H](C)N)CSCC7=O)C(=O)N[C@@H](CC(=O)O)C(=O)N[C@@H](C(C)C)C(=O)N6CCC[C@H]6C(=O)N[C@@H](CO)C(=O)N[C@@H](CC(C)C)C(=O)N6CCC[C@H]6C(=O)N5)C(N)=O)nn4)COCCC(=O)NCCOCCOCCOCCOCCOCCOCCOCCOCCOCCOCCOCCOCCOCCOCCOCCOCCOCCOCCOCCOCCOCCOCCOCCn4cc(CCC(=O)NCCCC[C@H](NC(=O)[C@H](C)NC(=O)[C@@H]5CSCC(=O)N6CCN7CCN(CC6)C(=O)CSC[C@H](NC(=O)[C@H](Cc6cccc8ccccc68)NC(=O)[C@H](CC(=O)O)NC(=O)[C@H](C)NC(=O)[C@H](CC(=O)O)NC(=O)[C@@H](NC(=O)[C@H](C)N)CSCC7=O)C(=O)N[C@@H](CC(=O)O)C(=O)N[C@@H](C(C)C)C(=O)N6CCC[C@H]6C(=O)N[C@@H](CO)C(=O)N[C@@H](CC(C)C)C(=O)N6CCC[C@H]6C(=O)N5)C(N)=O)nn4)nn3)C(N)=O)NC(=O)[C@@H]3CCCN3C1=O)C(=O)CSC[C@H](NC(=O)[C@H](C)N)C(=O)N[C@@H](CC(=O)O)C(=O)N[C@@H](C)C(=O)N[C@@H](CC(=O)O)C(=O)N[C@@H](Cc1cccc3ccccc13)C(=O)N2 [BCY12262]	0.017 nM	3.29 nM	68%	–
I: ACDAD[1Nal]CDVPSLPCAK-NH2 / II: ACDAD[1Nal]CDVPSLPCAK-NH2 / III: ACDAD[1Nal]CDVPSLPCAK-NH2 (linker I:2-I:7-I:14, II:2-II:7-II:14, III:2-III:7-III:14 via X1; linker I:16-II:16-III:16 via X3) [BCY12260]	0.109 nM	–	64%	9.62 nM
